Numbered stars: 1 amine (or outer) side, 2 acyl side, 3 side chain; on linkers, the order of the positions; unused ones are H or OH. Bridge positions count the residues as written; N and C are the ends. Square brackets hold non-standard residues; d marks the D form. Peptide text beside a SMILES is read from it. I, II: the chains in the order shown. Actinocin(9to1) = Cc1c2oc3c(C)ccc(C(=O)[*:1])c3nc-2c(C(=O)[*:2])c(N)c1=O; NMeV = CN[C@H](C(=O)O)C(C)C; Sar = CNCC(=O)O
Experiments:
[1] = system: RNA polymerase II from HeLa cells; test: In vitro transcription of dCMP-tailed template, RNA polymerase II; format: biochemical, mammalian; settings: for effect of the THP by itself on the transcription reactions: lanes 2, 6, 10
Procedure: FIG. 5 is a radiogram showing the inhibition of RNA polymerase II transcription by Act D and its resumption due to the addition of THP(A) and THP(B). Relative intensities of the bands were determined as in Table 6. The concentration of the DNA was 71.4 μM.
(§1) The inhibition of RNA polymerase transcription caused by Act D binding to DNA was studied using the system described in Kadesch and Chamberlin, 1982, in which purified RNA polymerases from mammalian cells, such as RNA polymerases I, II and II from HeLa cells, are able to transcribe defined dCMP-tailed DNA templates efficiently and specifically. The dCMP-tailed DNA system allows quantitative studies of transcription reactions by the polymerase protein itself in the absence of other protein factors, and is thus an appropriate system to analyze the direct effect of DNA-binding drugs on the transcription process, and the protective effect of THP(A) and THP(B) on transcription in the presence of Act D.
(§2) DNA-dependent RNA polymerases I, II and III from HeLa cells (pol I, pol II and pol III, respectively) were purified by a method which is a modification of the procedure described by Hodo and Blatti, 1977.
(§3) The templates DNA were linearized by restriction enzyme Pst I generating a 3' protruding end, and tailed at both ends with dCTP by using terminal transferase (Boehringer Mannheim). Following ethanol precipitation, the dCMP-tailed DNAs were digested with a second restriction enzyme, and the selected tailed fragment was purified from agarose gel as described by Kadesch and Chamberlin, 1982.
Transcription reaction mixtures were incubated in 15 μl of transcription buffer containing 70 mM Tris-HCl (pH 7.9), 0.1M NH4 Cl, 6 mM MgCl2, 5 mM spermidine, 10% glycerol, 0.15 mM dithriothreitol, 0.6 μg of dCMP-tailed template, and 0.5 μl of HeLa RNA polymerase (3u) at 30° C. for 10 min. Pulse buffer (3.5 μl) containing 4.3 mM of ATP, GTP and CTP, and 170 μM UTP, 20 μCi of [α-^32 P]UTP was added to the transcription reaction mixture for 20 seconds incubation. Transcription elongation then took place by adding 1.5 μl of chase buffer containing 7 mM UTP in the presence or absence of 0.06 μg Act D. Transcription elongation was carried out for 10 min and was then stopped by addition of proteinase K buffer (0.6% SDS; 25 mM Tris pH 7.9; 25 mM EDTA final concentration) 200 μg/ml proteinase K, and 30 μg of tRNA, and incubated for 25 min at 65° C. The sample was ethanol precipitated, pellet was resuspended in loading buffer (90% formamide; 0.5×Tris borate buffer) and subjected to 6% polyacrylamide--urea gel electrophoresis. The autoradiogram of the gel was analyzed by molecular dynamics computing densitometer to determine the relative intensities of the bands. (Nucleoside triphosphates and tRNA were purchased from Sigma, proteinase K from Boehringer Mannheim, and [α-^32 P]CTP (400 Ci/mmol) from Amersham International, United Kingdom).
The sensitivity of the three RNA polymerases from HeLa cells to various concentrations of Act D was determined, using the purified polymerases and a dCMP-tailed template of 225 bp for pol I and of 420 bp for pol II and pol III. These templates are expected to give runoff transcripts of 225 and 420 nucleotides, respectively, since RNA polymerase initiates transcription at discrete sites at the single-stranded tail double stranded duplex junction. In all experiments a pulse-chase protocol was used.
It was figured that the concentration of the THP(A)+THP(B) required to prevent binding of Act D to DNA would be higher than that of Act D, since they are expected to protect the DNA in general and not necessarily at d(GpC) base pair (bp), whereas the concentration of Act D is related to the d(GpC) content of the DNA. […] Yet when THP(A) and THP(B) were added together in a ratio of 1:1, their effect was dramatic. At a concentration of 200 μM there was a recovery of 75% of transcription in the presence of 2.5 μM Act D, which by itself would have inhibited 97% of the reaction. […]

[2] = system: RNA polymerases I, II and III from HeLa cells; test: In vitro transcription of dCMP-tailed template, summary for the three polymerases; format: biochemical, mammalian; settings: pol I
From the text: as §1
(§4) Transcription reaction mixtures were incubated in 15 μl of transcription buffer containing 70 mM Tris-HCl (pH 7.9), 0.1M NH4 Cl, 6 mM MgCl2, 5 mM spermidine, 10% glycerol, 0.15 mM dithriothreitol, 0.6 μg of dCMP-tailed template, and 0.5 μl of HeLa RNA polymerase (3u) at 30° C. for 10 min. […] The autoradiogram of the gel was analyzed by molecular dynamics computing densitometer to determine the relative intensities of the bands. […]
(§5) The sensitivity of the three RNA polymerases from HeLa cells to various concentrations of Act D was determined, using the purified polymerases and a dCMP-tailed template of 225 bp for pol I and of 420 bp for pol II and pol III. […]

[3] = system: HeLa whole cell extract (WCE); test: In vitro transcription using HeLa whole cell extract (WCE); format: biochemical
Procedure: The DNA was preincubated with THPs (A+B) at increasing concentrations for 20 min at 30° C., actinomycin D was then added at a concentration of 0.4 μg/ml. Following 20 min of incubation, WCE (10 μl) was added for incubation of 20 min at 30° C. Radioactive nucleotide mix was then added for a pulse of 5 min followed by addition of chase mix containing 10 mM CTP. Transcription proceeded for 30 min at 30° C. and was then stopped. […] Lane M--molecular weight markers. Lane C--control reaction without […] or THPs. Lanes of reaction with 0.4 μg/ml actinomycin D are marked (+), lanes of increasing concentrations of THPs (0, 5, 10, 20, 50, 100, 200, 500 μg/ml) are also marked above the lanes.
A 20-μl reaction contained 10 μl WCE, 1 μg DNA, 4 mM creatine phosphate, 500 μM ATP, GTP, UTP, 50 μM CTP, 20 μCi of [α-^32 P]CTP, and transcription was performed at 30° C. All reactions were preincubated 20 min before the addition of the nucleotide mixture; 3 min after the addition of radioactive nucleotides, (pulse), chase mix containing 10 mM unlabelled CTP was added and transcription proceeded for additional 20 min.

[4] = system: RNA polymerase I from HeLa cells; test: In vitro transcription of dCMP-tailed template, RNA polymerase I; format: biochemical, mammalian
From the text: as §1, with “D. […]” for “D.”
as §4, §5

[5] = system: RNA polymerase III from HeLa cells; test: In vitro transcription of dCMP-tailed template, RNA polymerase III; format: biochemical, mammalian
From the text: as §1, §2, §3, §4, §5

d(ATGCAT) = test: 1H NMR titration: equilibrium binding of Act D to d(ATGCAT) in presence and absence of THPs; settings: no THPs
From the text: Expanded views of (a) and (a') are shown in spectra (A) and (A'), respectively of FIG. 4(b). The spectra were obtained at pH 7 (as in FIG. 3).
(c) Binding of Act D to d(ATGCAT). The binding of Act D to free oligonucleotide and to the oligonucleotide-THPs complex have been investigated by the ^1 H NMR titration technique.
The equilibrium binding properties of Act D-d(ATGCAT) in the presence and absence of the THPs (Table 4) were derived from the proton peak area ratios of the free hexamer to the bound Act D-hexamer.

enzymes = settings: e.g. against heating, freezing and drying; cited from earlier work
[6] = system: gram positive and gram negative bacteria; test: Antibiotic activity test on bacterial cultures; format: cell-based; settings: several cultures of gram positive and gram negative bacteria
From the text: (§6) THP(A) and THP(B) are not toxic to mammals.

E. coli = E. coli growth under high salt or in the presence of adriamycin; format: cell-based; settings: conditions which otherwise prevent E. coli growth
[7] = Toxicity on administration to mice; format: in vivo; settings: doses of 1, 10 and 100 mg/100 g body weight
From the text: as §6

HL60 cells = test: [3H] thymidine incorporation (DNA synthesis) in HL60 cells; format: cell-based; settings: Homo sapiens, HL-60, read-out: inhibition of [3H] thymidine incorporation
Procedure: FIG. 6 illustrates reversal of adriamycin inhibition of DNA synthesis due to THPs. It depicts a schematic presentation of percent [^3 H] thymidine incorporated versus adriamycin concentration according to the table below the scheme. Empty squares--[^3 H] thymidine incorporation versus adriamycin concentration. Filled squares--[^3 H] thymidine incorporation versus adriamycin concentration in the presence of THPs (100 μg/ml).
HL60 cells were grown in RPMI medium (Gibco) containing 10% fetal calf serum (Biological Laboratories--Bet Haemek) in microwell plates (Nunc). Cells were suspended in medium at a concentration of 2×10^5 cells per ml and dispersed into the wells of the plates in 100 μl aliquots. Following 20 hrs of incubation at 37° C., the cells were treated with THPs (100 μg/ml) and adriamycin at increasing concentrations as indicated in FIG. 6. After 24 hrs [^3 H] thymidine was added (1 μCi/well, […]) for a duration of 3 hrs. Thymidine incorporation was stopped by addition of 25 μl trichloroacetic acid (TCA) at 20%, and the plates were placed at 4° C. overnight. TCA precipitates were washed with 10% TCA (100 μl), solubilized in 100 μl 1N NaOH and transferred to vials for counting in the presence of 3 ml scintillation solution containing toluene:Lumax (Lumac, The Netherlands) (3:2) mix. Assays were performed in triplicates.

[8] = THP 10 μg/ml (66 μM, 60 μM printed for THP(B)), Act D 3 μg/ml [2.5 μM]
[9] = THP 30 μg/ml (200 μM), Act D 3 μg/ml [2.5 μM]
[10] = THP 60 μg/ml (400 μM), Act D 3 μg/ml [2.5 μM]
[11] = THP 60 μg/ml (400 μM), without Act D

Structure (SMILES): Cc1c2oc3c(C)ccc(C(=O)N[C@@H]4C(=O)N[C@H](C(C)C)C(=O)N5CCC[C@H]5C(=O)N(C)CC(=O)N(C)[C@@H](C(C)C)C(=O)O[C@@H]4C)c3nc-2c(C(=O)N[C@@H]2C(=O)N[C@H](C(C)C)C(=O)N3CCC[C@H]3C(=O)N(C)CC(=O)N(C)[C@@H](C(C)C)C(=O)O[C@@H]2C)c(N)c1=O [Act D, Actinomycin D] (I: T[dV]P[Sar][NMeV] / II: T[dV]P[Sar][NMeV]; ester I:1-I:C, II:1-II:C; linker I:N-II:N via Actinocin(9to1))
- inhibition of transcription ([1]; Act D 2.5 μM (3 μg/ml) by itself): 97%
- % transcription ([1]; Act D 3 μg/ml [2.5 μM], THP 0): 0.2%
- Percentage of residual transcription ([1]; Actinomycin-D 1 μg/ml): 22%
- Percentage of residual transcription ([1]; Actinomycin-D 4 μg/ml): 3%
- Percentage of residual transcription ([1]; Actinomycin-D 5 μg/ml): 3%
- residual transcription ([2]; 1 μg/ml Act D added with the chase): 10-20%
- residual transcription ([2]; Act D 3-5 μg/ml): 0.1-3%
- inhibition of the transcription reaction ([3]; Act D alone at 0.4 μg/ml): 80%
- residual transcription ([3]; actinomycin D alone, 0.4 μg/ml): 20%
- Percentage of residual transcription ([4]; Actinomycin-D 1 μg/ml): 16%
- Percentage of residual transcription ([4]; Actinomycin-D 5 μg/ml): 3%
- Percentage of residual transcription ([5]; Actinomycin-D 1 μg/ml): 13%
- Percentage of residual transcription ([5]; Actinomycin-D 3 μg/ml): 3%
- Percentage of residual transcription ([5]; Actinomycin-D 5 μg/ml): 0.1%
- d(ATGCAT) (free/bound) (d(ATGCAT); molar ratio Act D/d(ATGCAT) 0.16): 4.9
- d(ATGCAT) (free/bound) (d(ATGCAT); molar ratio Act D/d(ATGCAT) 0.32): 1.7
- d(ATGCAT) (free/bound) (d(ATGCAT); molar ratio Act D/d(ATGCAT) 0.48): 0.8
- d(ATGCAT) (free/bound) (d(ATGCAT); molar ratio Act D/d(ATGCAT) 0.64): 0.4

Structure (SMILES): CC1=NCC[C@@H](C(=O)O)N1 [THP(B), 2-methyl-4-carboxy-3,4,5,6-tetrahydropyrimidine]
- % transcription [1, 8]: 1.0%
- % transcription [1, 9]: 2.7%
- % transcription [1, 10]: 5.1%
- % transcription [1, 11]: 100%
- effect of the THP by itself on the transcription reactions ([1]; without Act D): did not inhibit the transcription reactions
- protective effect on enzymes (enzymes): protective effect on enzymes
- antibiotic activity [6]: do not have antibiotic activity

Structure (SMILES): CC1=NCC(O)C(C(=O)O)N1 (stereo not drawn) [THP(A), 2-methyl-4-carboxy-5-hydroxy-3,4,5,6-tetrahydropyrimidine]
- % transcription [1, 8]: 0.2%
- % transcription [1, 9]: 0.5%
- % transcription [1, 10]: 1.5%
- % transcription [1, 11]: 100%
- effect of the THP by itself on the transcription reactions ([1]; without Act D): did not inhibit the transcription reactions
- growth of E. coli in the presence of adriamycin (E. coli): enable efficient growth of E. coli
- growth of E. coli under high salt concentrations (E. coli): enable efficient growth of E. coli
- antibiotic activity [6]: do not have antibiotic activity
- toxic effects [7]: no toxic effects

Structure (SMILES): COc1cccc2c1C(=O)c1c(O)c3c(c(O)c1C2=O)C[C@@](O)(C(=O)CO)C[C@@H]3O[C@H]1C[C@H](N)[C@H](O)[C@H](C)O1 [adriamycin]
- inhibition at 0.01 µg/mL (HL60 cells): 30%
- inhibition at 0.02 µg/mL (HL60 cells): 40%

From patent US5789414A, “Pharmaceutical compositions comprising tetrahydropyrimidine derivates” (Yeda Research and Development Co. Ltd., priority 1992, dated 1998)
